Measurements from EP3839043A1, “SCREENING METHODS FOR COMPOUNDS MODULATING POLYAMINE TRANSPORT” (Katholieke Universiteit Leuven, priority 2019, dated 2021).
Counter-ions that a name gives are not always drawn.

Key:
[1] = system: isolated mouse cortical neurons; assay: TUNEL staining of SPM-treated primary neurons; type: cell-based; settings: CA-074 10 µM; SPM 10 µM, 24 h; Atp13a2 knockdown neurons
Excerpt: Neuron isolation - Primary cortical neurons were derived from E16 FVB/N mice embryos. Pregnant mice were sacrificed on gestation day 16 by cervical dislocation. E16 mice pup brains were collected and placed in a dish containing calcium- and magnesium-free Hanks' Balanced Salt Solution (HBSS, Life Technologies, 14180-046) on ice. Both cerebral hemispheres were separated from the cerebellum. Meninges were removed from the cerebral hemispheres and the brain cortices dissected. Brain cortices were collected, washed twice and digested with 0.05% trypsin (Life Technologies, 25300-054, 10 min at 37°C). Trypsin reaction was terminated by the addition of 7 ml HBSS and 1 ml of horse serum. Cells were separated by pipetting and filtration through a cell strainer (40 µm, Falcon, 352340). Cells were centrifuged at 1,000 rpm for 5 min (4°C), the supernatant discarded and the pellet suspended in 5 ml Dulbecco's Modified Eagle Medium (DMEM; Sigma-Aldrich, D6546) containing GlutaMAX (Life Technologies, 31966-021) containing 5% horse serum (Life Technologies, 26050-088) and 20 mM glucose (Sigma-Aldrich, 8270). Primary cortical neurons were plated in 12 well plates, on cover slips coated with poly-D-lysine (Sigma-Aldrich, P6407). […]
TUNEL staining - TUNEL staining was assessed according to the manufacturer's protocol for the Click-iT Plus TUNEL assay (ThermoFisher, C10617). […]

Purified ATP13A2 = target: T1, Purified ATP13A2 (Homo sapiens, UniProt Q9NQ11); assay: ATPase assay (ADP-Glo Max), purified ATP13A2 from yeast expression system; type: biochemical; design: we obtained >95% pure, full length and solubilized ATP13A2; biotin acceptor domain (BAD) tag behind a thrombin cleavage site (C, cleaved yes); made in house; host or cells: S. cerevisiae W303-1B/Gal4-ΔPep4, pYeDP60 vector; settings: for lipid concentration of maximal effect on ATPase activity / ATP13A2 activity, effect of regulatory lipids: purified ATP13A2; for lipid concentration of maximal effect on ATPase activity: 2 mM SPM; for ATP13A2 activity, effect of regulatory lipids: only in the presence of SPM
T1 sequence (Q9NQ11 1-1175 isoform Q9NQ11-3): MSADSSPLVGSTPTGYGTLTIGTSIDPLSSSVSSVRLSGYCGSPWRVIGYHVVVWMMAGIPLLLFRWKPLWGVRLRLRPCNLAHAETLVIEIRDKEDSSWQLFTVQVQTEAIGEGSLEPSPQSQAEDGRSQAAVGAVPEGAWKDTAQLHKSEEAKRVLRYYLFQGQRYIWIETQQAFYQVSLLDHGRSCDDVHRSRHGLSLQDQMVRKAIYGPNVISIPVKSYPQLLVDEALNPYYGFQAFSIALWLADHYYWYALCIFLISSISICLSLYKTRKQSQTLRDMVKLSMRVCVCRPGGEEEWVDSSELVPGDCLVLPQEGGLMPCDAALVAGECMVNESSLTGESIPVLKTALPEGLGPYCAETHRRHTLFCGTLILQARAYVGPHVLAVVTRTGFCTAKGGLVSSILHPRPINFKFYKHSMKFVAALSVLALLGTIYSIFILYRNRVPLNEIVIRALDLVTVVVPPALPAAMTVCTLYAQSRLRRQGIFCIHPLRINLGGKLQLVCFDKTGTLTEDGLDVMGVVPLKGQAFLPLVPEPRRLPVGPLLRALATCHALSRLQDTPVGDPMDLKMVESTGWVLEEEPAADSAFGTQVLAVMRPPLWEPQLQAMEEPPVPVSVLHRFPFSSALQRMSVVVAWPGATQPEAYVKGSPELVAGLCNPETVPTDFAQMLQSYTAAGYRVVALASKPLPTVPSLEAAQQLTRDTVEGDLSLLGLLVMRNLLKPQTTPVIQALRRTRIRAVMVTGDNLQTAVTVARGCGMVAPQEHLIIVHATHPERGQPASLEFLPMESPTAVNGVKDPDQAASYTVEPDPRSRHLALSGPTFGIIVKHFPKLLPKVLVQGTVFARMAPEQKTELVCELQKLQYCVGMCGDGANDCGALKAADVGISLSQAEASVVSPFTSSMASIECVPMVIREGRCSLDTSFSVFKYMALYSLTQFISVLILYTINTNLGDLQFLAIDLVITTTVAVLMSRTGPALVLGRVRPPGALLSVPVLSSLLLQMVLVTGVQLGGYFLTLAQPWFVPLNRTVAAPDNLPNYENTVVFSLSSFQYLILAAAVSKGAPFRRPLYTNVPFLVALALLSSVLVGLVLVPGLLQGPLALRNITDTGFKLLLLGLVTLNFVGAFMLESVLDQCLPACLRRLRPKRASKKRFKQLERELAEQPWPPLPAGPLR
Method: (§1) ATPase assay - The ATPase activity of ATP13A2 was assessed using a commercially available luminescence assay (ADP-Glo Max assay, Promega) that monitors the production of ADP via luciferase activity. The reactions were performed for 30 min (37°C) in a final volume of 25 µl. The assay reaction mixture contained 50 mM MOPS-KOH (pH 7), 100 mM KCI, 11 mM MgCl2, 1 mM DTT, 195 µM DDM, various concentrations of the indicated compound, and either microsomes (5 µg) harvested from SH-SY5Y cells overexpressing ATP13A2 (WT or mutants) or purified ATP13A2 (0.5 µg). When purified ATP13A2 was used, we included 125 µM PA, 125 µM PI(3,5)P2 and 19.5 µM DDM in the reaction buffer. The assay was started by the addition of 5 mM ATP and was terminated by adding 25 µl of ADP-Glo Reagent. The 96-well plate was then incubated for 40 min at room temperature, followed by the addition of 50 µl of ADP-Glo Max Detection Reagent. After 40 min, luminescence was detected using a FlexStation 3.0 system (Molecular Devices). Dose-response curves and n/Km/Vmax values were calculated using GraphPad Prism Software (GraphPad Software Inc.).
Transformation and overexpression of ATP13A2 in yeast - The S. cerevisiae W303-1B/Gal4-ΔPep4 strain (leu2-3, his3-11,15, trp1-1::TRP1-GAL10-GAL4, ura3-1, ade2-1, canr, cir^+, ΔPep4 MAT; a kind gift from Rosa Lopez Marques) was transformed according to the lithium acetate/single-stranded carrier DNA/polyethylene glycol method [Gietz, R. D. & Woods, R. A. Methods Enzymol 350, 87-96 (2002)], with the pYeDP60 vector containing a yeast codon optimized version of human ATP13A2 variant 2 (WT or the catalytically dead E343A mutant) followed by a thrombin cleavage site and a C-terminal BAD tag [Azouaoui, H. et al. PLoS One 9, e112176, (2014); Jidenko, M. et al.Protein Expr Purif 48, 32-42, (2006)]. The transformation mixture was grown for 48 h at 30°C on minimal medium agar plates lacking uracil (0.54% yeast nitrogen base without amino acids, 0.12% yeast drop-out mix without Ura, 2% glucose, and 2% agar) to select yeast colonies that acquired the plasmid. These colonies were then cultured in 20 ml of MM-Ura medium (0.67% yeast nitrogen base without amino acids, 0.19% yeast drop-out mix without Ura, and 2% glucose) and grown for 24 h at 28°C and 200 rpm. The MM-Ura yeast pre-culture was used to inoculate 100 ml of MM-Ura medium to a final OD600 of 0.2, followed by a 12 h incubation period (28°C and 200 rpm). The second pre-culture was inoculated into 4.5 l of YPGE2X medium (2% yeast extract, 2% bactopeptone, 1% glucose, and 2.7% ethanol) to a final OD600 of 0.05 and grown for 36 h (28°C and 175 rpm). ATP13A2-BAD expression was induced with 2% galactose, followed by a second galactose induction 12 h later. After another 12 h, the pellet was collected (1,000 x g; 10 min; 4°C).
Yeast membrane preparation - Yeast cells were broken with glass beads using a BeadBeater (BioSpec products). The lysis buffer contained 50 mM Tris-HCI (pH 7.5), 1 mM EDTA, 0.6 M sorbitol, 1 mM phenylmethylsulfonyl fluoride and SigmaFast protease inhibitor. To remove cell debris and nuclei, the crude extract was centrifuged at 2,000 x g for 20 min (4°C). The supernatant (S1) was centrifuged at 20,000 x g for 20 min (4°C) to pellet the heavy membrane fraction (P2), and the resulting supernatant (S2) was further centrifuged at 200,000 x g for 1 h (4°C). The resulting pellet (i.e., the light membrane fraction, P3) was resuspended in 20 mM HEPES-Tris (pH 7.4), 0.3 M sucrose and 0.1 mM CaCl2. The total protein concentration was determined using a Bradford assay (B6916, Sigma-Aldrich).
ATP13A2-BAD purification - The method used to purify ATP13A2 was based on the purification of overexpressed Drs2p from yeast membranes. Yeast P3 membranes were diluted to 5 mg of total protein/ml in SSR buffer (50 mM MOPS-KOH (pH 7), 100 mM KCI, 20% glycerol, 5 mM MgCl2, 1 mM DTT, and SigmaFast protease inhibitor cocktail) and solubilized using DDM, with a detergent to protein ratio of 1:1.

Microsomal ATP13A2 = target: T2, Microsomal ATP13A2 (Homo sapiens, UniProt Q9NQ11); assay: ATPase assay (ADP-Glo Max), solubilized microsomes of SH-SY5Y cells overexpressing ATP13A2 WT; type: biochemical; settings: indicated doses; microsomes 5 µg
T2 construct: expressed in transfected cells; host or cells: SH-SY5Y human neuroblastoma cells, lentiviral transduction; microsomes solubilised with DDM
T2 sequence (Q9NQ11 1-1175 isoform Q9NQ11-3): T1 sequence (Q9NQ11 1-1175 isoform Q9NQ11-3)
Method: Membrane fractionation - Transduced SH-SY5Y cells were seeded in […] at a density of 6 x 10^6 cells per plate. 24 h later, the cells were harvested following trypsinization and brief centrifugation (300 x g, 5 min). Subcellular fractionation was performed by differential centrifugation. The microsomal protein concentration was measured using the bicinchoninic acid assay (Thermo Fischer Scientific, Pierce) according to the manufacturer's instructions.
as §1, with “The assay reaction mixture contained 50 mM MOPS-KOH (pH 7), 100 mM KCI, 11 mM MgCl2, 1 mM DTT, 195 µM DDM, various concentrations of the indicated compound, and either microsomes (5 µg) harvested from SH-SY5Y cells overexpressing ATP13A2 (WT or mutants) or purified ATP13A2 (0.5 µg). When purified ATP13A2 was used, we included 125 µM PA, 125 µM PI(3,5)P2 and 19.5 µM DDM in the reaction buffer.” left out

SH-SY5Y cells = assay: MUH cytotoxicity assay; type: cell-based, human; settings: increasing concentrations, 24 h
Method: MUH cytotoxicity assay - SH-SY5Y cells were seeded in 96-well plates (1 X 10^4 cells per well) and allowed to adhere overnight. The cells were subsequently treated with increasing doses of the indicated compounds for 24-48 h. Following exposure, the cells were washed with PBS and stained with 300 µg/ml MUH (prepared in DMSO, dissolved in PBS) for 30 min at 37°C.

CCCNC(=O)[C@H]1O[C@@H]1C(=O)N[C@H](C(=O)N1CCC[C@H]1C(=O)O)[C@@H](C)CC [CA-074]
SPM-induced neuronal death (TUNEL positivity) [1]: rescues SPM-induced neuronal death

CCCCCCCC/C=C\CCCCCCCC(=O)OC[C@H](COP(=O)(O)O)OC(=O)CCCCCCC/C=C\CCCCCCCC [PA, 1,2-dioleoyl-sn-glycero-3-phosphate (sodium salt)]
lipid concentration of maximal effect on ATPase activity (Purified ATP13A2): 125 µM | ATP13A2 activity, effect of regulatory lipids (Purified ATP13A2): strongly stimulated

CCCCCCCC/C=C\CCCCCCCC(=O)OC[C@H](COP(=O)(O)O[C@@H]1[C@H](O)[C@H](OP(=O)(O)O)[C@@H](O)[C@H](OP(=O)(O)O)[C@H]1O)OC(=O)CCCCCCC/C=C\CCCCCCCC [PI(3,5)P2, 1,2-dioleoyl-sn-glycero-3-phospho-(1'-myo-inositol-3',5'-bisphosphate) (ammonium salt)]
lipid concentration of maximal effect on ATPase activity (Purified ATP13A2): 125 µM | ATP13A2 activity, effect of regulatory lipids (Purified ATP13A2): strongly stimulated

[Na+].[Na+].[Na+].[O]=[V]([O-])([O-])[O-] [orthovanadate, sodium orthovanadate]
SPM-induced ATPase activity, inhibition (Purified ATP13A2; 1 mM SPM, 0.25 mM orthovanadate, 125 µM PA/PI(3,5)P2): blocked

Cl.Cl.NCCCCN [putrescine, putrescine dihydrochloride]
ATPase activity of ATP13A2, dose-response (Microsomal ATP13A2): did not induce ATP13A2 activity | viability of control cells (SH-SY5Y cells): not cytotoxic
